Test results published in patent US10189809B2, “SGC stimulators” (Ironwood Pharmaceuticals, Inc., priority 2010, dated 2019).

Experiments:
[1] = target: T1, soluble guanylate cyclase (sGC) (Homo sapiens (Human), UniProt Q02108+Q02153); assay: sGC-HEK-cGMP assay run with SNP incubation (HEK WC assay); format: cell-based; settings: for Emax at 10 µM: read-out: HEK WC Assay (% Emax at 10 uM/with 10 uM SNP); for Emax at 30 µM: read-out: HEK WC Assay (% Emax at 30 uM/with 10 uM SNP)
Method in brief: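 EC50 values derive from concentration-response curves of intracellular cGMP in HEK293 cells, which express sGC endogenously. Compound and sodium nitroprusside were co-incubated 10 min at 37 °C after a 15-min 0.5 mM IBMX step, with 0.1 M HCl lysis and 1% DMSO vehicle.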

[2] = target: Human soluble guanylate cyclase enzyme (hsGC) (Homo sapiens (Human), UniProt Q02108+Q02153); assay: Purified human sGC enzyme activity assay; format: biochemical; settings: for sGC Enzyme (specific activity at 10 μM) / sGC Enzyme (fold increase at 10 μM without SNP): 10 μM compound; for sGC Enzyme (specific activity at 30 μM) / sGC Enzyme (fold increase at 30 μM without SNP): 30 μM compound
Procedure: Human soluble guanylate cyclase enzyme (hsGC) obtained from Enzo Inc. (P/N: ALX-201-177) was used to evaluate the activity of test compounds. The assay reactions contained 0.1 M Tris (pH 8.0), 0.5 mg/mL BSA (pH 8.0), 2 mM DTT, 2 mM MgCl2, 300 μM GTP, 1 mM 3-isobutyl-1-methylxanthine (IBMX) and 5 ng human soluble guanylate cyclase enzyme. Test compounds in DMSO were then added (2 μL, 10 or 30 μM final concentration) and incubated (200 μL, 96-well plate format) at 37° C. for 30 minutes. The controls were carried out using 2 μL DMSO. After the 30 minute incubation, the reaction was stopped with the addition of 200 μL of cold methanol. The plate was then centrifuged at 3,200 rpm for 10 minutes at room temperature. Supernatants (200 μL) were collected and transferred to a new 96 well plate for analysis.
An 8 point cGMP (Sigma-Aldrich P/N: G6129) standard curve was prepared in assay buffer ranging from 0.156-20 μM. Samples for the cGMP standard curve were then diluted with an equal volume of methanol resulting in final cGMP concentrations of 0.078-10 μM.
The cGMP standard curve was generated using GraphPad Prism Software.
Calculations: Specific Activity was determined by the amount of cGMP formed (nmoles) per mg of sGC per min. Enzyme “fold-change” was calculated by dividing Specific Activity for test compounds by Specific Activity of DMSO controls.

[3] = target: T1, soluble guanylate cyclase (sGC); assay: sGC-HEK-cGMP assay run in the absence of SNP (HEK WC assay); format: cell-based; settings: no SNP, increase in the sGC receptor activity; for HEK WC Assay (fold increase at 10 μM): compound at 10 μM; for HEK WC Assay (fold increase at 30 μM): compound at 30 μM
Method in brief: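 Intracellular cGMP was measured by LC/MS, using a standard curve, in HEK293 cells treated with compound for 10 min at 37° C after a 15 min 0.5 mM IBMX pretreatment, with no SNP present. Lysis and quench used 0.1 M HCl. EC50 values came from concentration-response fits.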

T1 sequence (Q02153 whole entry): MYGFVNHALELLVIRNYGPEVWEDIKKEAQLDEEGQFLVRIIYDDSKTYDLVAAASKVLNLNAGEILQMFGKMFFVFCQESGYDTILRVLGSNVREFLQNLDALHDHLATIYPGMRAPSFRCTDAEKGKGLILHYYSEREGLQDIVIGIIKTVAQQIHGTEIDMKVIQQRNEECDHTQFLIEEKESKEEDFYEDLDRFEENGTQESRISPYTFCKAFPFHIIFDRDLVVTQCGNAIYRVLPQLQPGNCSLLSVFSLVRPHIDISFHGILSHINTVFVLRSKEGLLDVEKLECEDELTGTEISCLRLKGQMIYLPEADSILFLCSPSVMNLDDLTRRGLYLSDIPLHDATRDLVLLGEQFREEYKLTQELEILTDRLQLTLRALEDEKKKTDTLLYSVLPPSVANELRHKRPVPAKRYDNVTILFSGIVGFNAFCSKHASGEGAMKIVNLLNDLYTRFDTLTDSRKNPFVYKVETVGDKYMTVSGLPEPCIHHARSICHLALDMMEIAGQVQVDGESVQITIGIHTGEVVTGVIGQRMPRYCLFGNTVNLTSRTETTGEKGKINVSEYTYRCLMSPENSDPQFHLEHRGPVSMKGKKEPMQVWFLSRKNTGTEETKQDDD
T1 sequence (Q02108 whole entry): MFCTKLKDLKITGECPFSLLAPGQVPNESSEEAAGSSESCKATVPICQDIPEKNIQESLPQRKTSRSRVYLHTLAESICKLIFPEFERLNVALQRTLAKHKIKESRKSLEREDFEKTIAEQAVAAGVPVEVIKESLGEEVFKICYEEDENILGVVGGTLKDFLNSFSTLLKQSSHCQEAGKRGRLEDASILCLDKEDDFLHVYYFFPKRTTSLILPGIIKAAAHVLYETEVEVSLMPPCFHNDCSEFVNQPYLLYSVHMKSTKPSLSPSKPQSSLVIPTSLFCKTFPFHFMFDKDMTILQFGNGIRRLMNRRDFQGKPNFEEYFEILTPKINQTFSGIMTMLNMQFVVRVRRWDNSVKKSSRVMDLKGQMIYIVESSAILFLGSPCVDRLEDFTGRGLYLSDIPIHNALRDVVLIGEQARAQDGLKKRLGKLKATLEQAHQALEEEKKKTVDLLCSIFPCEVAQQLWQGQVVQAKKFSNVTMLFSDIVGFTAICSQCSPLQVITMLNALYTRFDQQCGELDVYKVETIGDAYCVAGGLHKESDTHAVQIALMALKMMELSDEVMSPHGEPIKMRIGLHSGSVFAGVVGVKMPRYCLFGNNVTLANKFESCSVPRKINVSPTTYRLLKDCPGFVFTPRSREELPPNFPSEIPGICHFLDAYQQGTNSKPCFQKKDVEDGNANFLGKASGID
Sequence of Human soluble guanylate cyclase enzyme (hsGC) (Q02153 whole entry): as the sequence (Q02153 whole entry) above
Sequence of Human soluble guanylate cyclase enzyme (hsGC) (Q02108 whole entry): as the sequence (Q02108 whole entry) above

Fc1ccccc1Cn1nc(-c2ncccn2)cc1-c1cccnc1 [Compound I-10]
Emax at 10 µM [1]: 0 to 10% | Emax at 30 µM [1]: 0 to 10% | sGC Enzyme (specific activity at 10 μM) [2]: D (D = 200 to <500) | sGC Enzyme (fold increase at 10 μM without SNP) [2]: B (B = 2 to <5 fold increase) | sGC Enzyme (specific activity at 30 μM) [2]: D (D = 200 to <500) | sGC Enzyme (fold increase at 30 μM without SNP) [2]: B (B = 2 to <5 fold increase) | HEK WC Assay (fold increase at 10 μM) [3]: A (A = no increase to <1 fold increase) | HEK WC Assay (fold increase at 30 μM) [3]: A (A = no increase to <1 fold increase)

Fc1ccccc1Cn1nc(-c2ccccn2)cc1-c1cnccn1 [Compound I-34]
Emax at 10 µM [1]: 0 to 10% | Emax at 30 µM [1]: 0 to 10% | sGC Enzyme (specific activity at 10 μM) [2]: B (B = 50 to <100) | sGC Enzyme (fold increase at 10 μM without SNP) [2]: A (A = no increase to <2 fold increase) | sGC Enzyme (specific activity at 30 μM) [2]: C (C = 100 to <200) | sGC Enzyme (fold increase at 30 μM without SNP) [2]: A (A = no increase to <2 fold increase) | HEK WC Assay (fold increase at 10 μM) [3]: A (A = no increase to <1 fold increase) | HEK WC Assay (fold increase at 30 μM) [3]: A (A = no increase to <1 fold increase)

COc1cccc(-c2cc(-c3ncccn3)n(Cc3ccccc3F)n2)n1 [Compound I-15]
Emax at 10 µM [1]: 0 to 10% | Emax at 30 µM [1]: 0 to 10% | sGC Enzyme (specific activity at 10 μM) [2]: C (C = 100 to <200) | sGC Enzyme (fold increase at 10 μM without SNP) [2]: A (A = no increase to <2 fold increase) | sGC Enzyme (specific activity at 30 μM) [2]: C (C = 100 to <200) | sGC Enzyme (fold increase at 30 μM without SNP) [2]: A (A = no increase to <2 fold increase) | HEK WC Assay (fold increase at 10 μM) [3]: A (A = no increase to <1 fold increase) | HEK WC Assay (fold increase at 30 μM) [3]: A (A = no increase to <1 fold increase)

Fc1ccccc1Cn1nc(-c2ccccn2)cc1-c1ccncn1 [Compound I-21]
Emax at 10 µM [1]: 0 to 10% | Emax at 30 µM [1]: 10 to 20% | sGC Enzyme (specific activity at 10 μM) [2]: C (C = 100 to <200) | sGC Enzyme (fold increase at 10 μM without SNP) [2]: A (A = no increase to <2 fold increase) | sGC Enzyme (specific activity at 30 μM) [2]: C (C = 100 to <200) | sGC Enzyme (fold increase at 30 μM without SNP) [2]: A (A = no increase to <2 fold increase) | HEK WC Assay (fold increase at 10 μM) [3]: A (A = no increase to <1 fold increase) | HEK WC Assay (fold increase at 30 μM) [3]: A (A = no increase to <1 fold increase)

Fc1ccccc1Cn1nc(-c2ncccn2)cc1-c1ccncc1 [Compound I-19]
sGC Enzyme (fold increase at 10 μM without SNP) [2]: A (A = no increase to <2 fold increase) | sGC Enzyme (fold increase at 30 μM without SNP) [2]: A (A = no increase to <2 fold increase) | HEK WC Assay (fold increase at 10 μM) [3]: A (A = no increase to <1 fold increase) | HEK WC Assay (fold increase at 30 μM) [3]: A (A = no increase to <1 fold increase)

Fc1ccccc1Cn1nc(-c2ccccn2)cc1-c1cccnc1 [Compound I-20]
sGC Enzyme (specific activity at 10 μM) [2]: C (C = 100 to <200) | sGC Enzyme (fold increase at 10 μM without SNP) [2]: A (A = no increase to <2 fold increase) | sGC Enzyme (specific activity at 30 μM) [2]: D (D = 200 to <500) | sGC Enzyme (fold increase at 30 μM without SNP) [2]: A (A = no increase to <2 fold increase) | HEK WC Assay (fold increase at 10 μM) [3]: A (A = no increase to <1 fold increase) | HEK WC Assay (fold increase at 30 μM) [3]: A (A = no increase to <1 fold increase)
